Values after ≈ are worked out from the molar mass of the structure shown.
Legend:
Test in all cases: MIC/MBC broth-dilution (micromethod), CLSI
Type in all cases: cell-based
E. coli of Collection = settings: Escherichia coli
From the text: (§1) Determination of Minimal Inhibitory Concentration (MIC), Minimal Bactericidal Concentration (MBC), bactericidal curves and killing rate on Gram positive and Gram negative bacteria strains, for the evaluation of the bactericidal activity of compounds of example 1 (n. 1 to 14).
(§2) Sensitivity tests have been performed in broth-dilution (micromethod) with the purpose to test the possible bacteriostatic and/or bactericidal power in different compounds, in accordance with CLSI guidelines (Clinical and Laboratory Standards Institute). In details, phenotypic methods based on in vitro MIC and MBC determination have been performed on previously isolated bacterial strains, identified and characterized at the level of their antibiotic susceptibility profile. According to MIC and MBC data, the Killing Rate was calculated as the ratio between MBC and MIC on which basis it is possible to define the compounds tested as bactericides (killing rate=1-4), or bacteriostatic (killing rate >4).
(§3) Preparation of the solution containing molecules: for each molecule to be tested, solutions were made as DMSO Stock, with a concentration of 2.560 mg/ml, used to test 12 dilutions with the following scalar drug concentrations: 512-256-128-64-32-16-8-4-2-1-0.5-0.25 μg/ml. The scalar dilutions were prepared directly on plates by using Mueller Hinton Broth (MHB) as a solvent.
(§4) Bacterial suspension preparation: cryostrains preserved at −80° C. were recovered by incubation in growth medium (Brain Heart Infusion Broth, BHI) for 24-48 hours at 37° C. followed by passages in agar growth medium (Columbia Blood Agar). Colonies with less than 30 hours are suspended in MHB with the purpose to prepare a bacterial suspension with a turbidity of 0.5 MF, containing approximately 1.5×10^8 cfu/ml. This injection is additionally diluted in MHB until reaching a final concentration of 5×10^5 cfu/ml (range 3-7×10^5 cfu/ml). Identical volumes of this bacterial suspension are added on a plate, for each well containing drug scalar dilutions, to obtain a final concentration between 512 a 0.25 μg/ml. The set up of bacterial suspensions as well as the passage on slate has always been performed within 30 minutes, in order not to alter the concentration of the bacterial suspension. Simultaneously, check in broth-microdilution only with solvent (in order to exclude that the effect of growth inhibition might be due to the drug solution solvent), positive growth control in absence of DMSO and drug, and negative purity control only with injection broth are performed. As a consequence the slate is incubated at 37° C. for 24 and 48 hours in aerobes. The 24 hours MIC is considered as the minimum drug concentration able to inhibit bacterial growth, which makes it possible to observe the absence of bacterial growth and the absence of turbidity. The same observations are valid to evaluate 48 hours MIC. After the incubation, an equal volume of bacterial suspension from each well is plated on agar growth medium and incubated for 24-48 hours at a temperature of 37° C. in aerobes, in order to define the MBC after the incubation. The MBC is evaluated as the minimum concentration of drug able to kill the 99,9% of the initial bacterial population.
(§5) Bacterial strains: the bactericidal and/or bacteriostatic power of the synthesized compounds can be determined by using standard reference strains such as: • 1. S. Aureus ATCC 25923 res kan, tob, res streptogramine (sga-sgb, efflux), res mupirocina (at low level), res trimetoprim; • 2. S. Aureus strain 1 (collection) mec a+, res kan tob gen, res quinolones, lincosamides, res streptogramine (sga-sgb), mlsb+sa constituent, mlsb constituent, res mupirocine (low level), res trimetoprim; • 3. S. Aureus strain 2 (collection) acquired penicillinase, res kan tob, res streptogramine (sga-sgb, efflux), res mupirocine (low level), res trimetoprim; • 4. Enterococcus faecalis ATCC 51299 (str+gen res at high level, mlsb res, simil van b res); • 5. […]

[1] = system: P. Aeruginosa of collection; settings: Pseudomonas aeruginosa
From the text: as §1, §2, §3, §4, §5

[2] = system: A. baumannii of collection; settings: Acinetobacter baumannii; for MBC: kills 99,9% of initial population
From the text: as §1, §2, §3, §4, §5

S. Aureus ATCC 25923 = settings: Staphylococcus aureus; for MBC: ATCC25923, kills 99,9% of initial population
From the text: as §1, §2, §3, §4, §5

[3] = system: Enterococcus faecalis strain 2 (collection); settings: for MBC: E. FAECALIS strain 2, kills 99,9% of initial population
From the text: as §1, §2, §3, §4, §5

[4] = system: Enterococcus faecalis ATCC 51299; settings: for MBC: ATCC51299, E. FAECALIS ATCC 51299, kills 99,9% of initial population; for MIC: ATCC51299, E. FAECALIS ATCC 51299, values without asterisk
From the text: as §1, §2, §3, §4, §5

[5] = system: S. Aureus strain 2 (collection); settings: Staphylococcus aureus; for MBC: kills 99,9% of initial population; for MIC: values without asterisk
From the text: as §1, §2, §3, §4, §5

[6] = system: Enterococcus faecalis strain 1 (collection); settings: for MBC: E. FAECALIS strain 1, kills 99,9% of initial population
From the text: as §1, §2, §3, §4, §5

[7] = system: S. Aureus strain 1 (collection) mec a+; settings: Staphylococcus aureus; for MBC: kills 99,9% of initial population; for MIC: marked *: MIC value read at 48 hours
From the text: as §1
In details, phenotypic methods based on in vitro MIC and MBC determination have been performed on previously isolated bacterial strains, identified and characterized at the level of their antibiotic susceptibility profile. According to MIC and MBC data, the Killing Rate was calculated as the ratio between MBC and MIC on which basis it is possible to define the compounds tested as bactericides (killing rate=1-4), or bacteriostatic (killing rate >4).
as §3
as §4, with “The 24 hours MIC is considered as the minimum drug concentration able to inhibit bacterial growth, which makes it possible to observe the absence of bacterial growth and the absence of turbidity.” left out, “incubation.” for “incubation. The MBC is evaluated as the minimum concentration of drug able to kill the 99,9% of the initial bacterial population.”
Bacterial strains: the bactericidal and/or bacteriostatic power of the synthesized compounds can be determined by using standard reference strains such as: • 1. S. Aureus ATCC 25923 res kan, tob, res streptogramine (sga-sgb, efflux), res mupirocina (at low level), res trimetoprim; • 2. S. Aureus strain 1 (collection) mec a+, res kan tob gen, res quinolones, lincosamides, res streptogramine (sga-sgb), mlsb+sa constituent, mlsb constituent, res mupirocine (low level), res trimetoprim; • 3. S. Aureus strain 2 (collection) acquired penicillinase, res kan tob, res streptogramine (sga-sgb, efflux), res mupirocine (low level), res trimetoprim; • 4. Enterococcus faecalis ATCC 51299 (str+gen res at high level, mlsb res, simil van b res); • 5. Enterococcus faecalis strain 1 (collection) (str+kan res at high level str res at high level tetracycline res); • 6. Enterococcus faecalis strain 2 (collection) (kan res at high level); • 7. E. coli of Collection: RESISTANT to ampicilline, amox+ac clav, ampicillinr+sulbactam, cefalexine, cefuroxime, cefuroxime axetil, cefixime, cefpodoxime, cefotaxime, ceftazidime, ceftriaxone, netilmicine, tobramicine, ciprofloxcine, trim/sulfametox, esbl pos, SENSITIVE to meropenem and gentamicine, INTERMEDIATE to amikacine; • 8. 8.

[8] = ATCC25923, values without asterisk
[9] = E. FAECALIS strain 2, marked *: MIC value read at 48 hours
[10] = E. FAECALIS strain 1, marked *: MIC value read at 48 hours

Row | Structure (SMILES) | MIC (E. coli of Collection) [µg/mL] | MIC [1] [µg/mL] | MIC [2] [µg/mL] | MBC (S. Aureus ATCC 25923) [µg/mL] | MIC (S. Aureus ATCC 25923; [8]) [µg/mL] | MBC [3] [µg/mL] | MIC ([3]; E. FAECALIS strain 2, values without asterisk) [µg/mL] | MBC [4] [µg/mL] | MIC [4] [µg/mL] | MBC [5] [µg/mL] | MIC [5] [µg/mL] | MBC [6] [µg/mL] | MIC ([6]; E. FAECALIS strain 1, values without asterisk) [µg/mL] | MBC [7] [µg/mL] | MIC [7] [µg/mL] | MBC [2] [µg/mL] | MIC [3, 9] [µg/mL] | MIC [6, 10] [µg/mL] | MIC (S. Aureus ATCC 25923; ATCC25923, marked *: MIC value read at 48 hours) [µg/mL]
1 | CC(C)(C)ON=Cc1cc(C=CC(=O)O)ccc1-c1ccc(O)c(C23CC4CC(CC(C4)C2)C3)c1 [Compound 12, 3-[3′-Adamantan-1-yl-4′hydroxy-2-tert-butoxyiminomethyl-biphenyl-4-yl]-acrylic acid] | 256 (≈ 541 µM) | 256 (≈ 541 µM) | 128 (≈ 270 µM) | 4 (≈ 8.45 µM) | 2 (≈ 4.22 µM) | 4 (≈ 8.45 µM) | 2 (≈ 4.22 µM) | 8 (≈ 16.9 µM) | 2 (≈ 4.22 µM) | 2 (≈ 4.22 µM) | 2 (≈ 4.22 µM) | 8 (≈ 16.9 µM) | 2 (≈ 4.22 µM) | 4 (≈ 8.45 µM) | 2 to 4 (≈ 4.22 to 8.45 µM) |  |  |  | 
2 | CON=Cc1cc(/C=C/C(=O)O)ccc1-c1ccc(O)c(C23CC4CC(CC(C4)C2)C3)c1 [Compound 13, 3-[3′-Adamantan-1-yl-4′-hydroxy-2-methoxyimino-methyl-biphenyl-4-yl]-acrylic acid] | 512 (≈ 1190 µM) | 256 (≈ 593 µM) | 128 (≈ 297 µM) | 4 (≈ 9.27 µM) | 2 (≈ 4.63 µM) | 16 (≈ 37.1 µM) |  | 32 (≈ 74.2 µM) | 8 (≈ 18.5 µM) | 32 (≈ 74.2 µM) | 4 (≈ 9.27 µM) | 16 (≈ 37.1 µM) |  | 4 (≈ 9.27 µM) | 2 to 4 (≈ 4.63 to 9.27 µM) | 512 (≈ 1190 µM) | 4 to 8 (≈ 9.27 to 18.5 µM) | 4 to 8 (≈ 9.27 to 18.5 µM) | 
3 | O=C(O)/C=C/c1ccc(-c2ccc(O)c(C34CC5CC(CC(C5)C3)C4)c2)cc1 [adarotene, reference compound] | 256 (≈ 684 µM) | 256 (≈ 684 µM) | 128 (≈ 342 µM) | 16 (≈ 42.7 µM) |  | 16 (≈ 42.7 µM) |  | 32 (≈ 85.5 µM) | 2 (≈ 5.34 µM) | 8 (≈ 21.4 µM) | 4 (≈ 10.7 µM) | 32 (≈ 85.5 µM) |  | 16 (≈ 42.7 µM) | 4 to 8 (≈ 10.7 to 21.4 µM) | 512 (≈ 1370 µM) | 0.5 to 1 (≈ 1.34 to 2.67 µM) | 2 to 4 (≈ 5.34 to 10.7 µM) | 4 to 8 (≈ 10.7 to 21.4 µM)

— patent US20220281835A1, “PHENOL DERIVATIVES FOR USE AS ANTIMICROBIAL, ANTIBACTERIAL, BACTERICIDE” (SPECIAL PRODUCT'S LINE S.P.A., priority 2019, published 2022)
